Reference: patent publication US20090012178A1, “Benzoxazocines and Their Therapeutic Use” (priority 2005, published 2009)
pIC50: −log10 of the molar value. Like-named read-outs stand apart in the source and are kept apart here.

Tests used:
Pharmacokinetic profile = type: in vivo; details: compared with nefopam
[1] = Morphine challenge assay (morphine-induced emesis in ferrets); type: in vivo, ferret; details: for % Reduction in no of retches/vomits: 3 mg/kg ip, 60 min before morphine 0.125 mg/Kg s.c., * = statistical significance; for anti-emetic activity in the morphine-induced emesis model (in words): ferrets
Description: In this respect, compounds of the invention retain the low side-effect potential of nefopam while having greater efficacy and more favourable pharmacokinetic parameters for chronic use.
Morphine was administered (0.125 mg/Kg s.c.) to albino or fitch male ferrets (0.9-1.7 kg) to induce emesis. Emesis was characterized by rhythmic abdominal contractions which were either associated with the oral expulsion of solid or liquid material from the gastrointestinal tract (ie vomiting) or not associated with the passage of material (i.e. retching movements). The number of highly distinctive abdominal contractions was counted.
The test substances and vehicle were administered by intraperitoneal injection 60 min before morphine administration. Results are given in Table 4 (*denotes statistical significance achieved).

CYP 2D6 = CYP 2D6 (Homo sapiens, UniProt P10635); assay: CYP 2D6 inhibition, substrate based assay; type: in vitro ADME
Description: (§1) CYP 2D6 inhibition assays were conducted according to the method of Ono et al. (1996—Xenobiotica, 26: 681-693). 5-HT Transporter binding assays were conducted according to the method of Tatsumi et al. (1997—Eur. J. Pharmacol., 340: 249-258). NA Transporter binding assays were conducted according to the method of Pacholczyk et al. (1991—Nature, 350: 350-354).

[2] = Mouse hotplate model of acute analgesia; type: in vivo; details: for Paw Latency (Sec) above control: 60 min before testing, * = statistical significance
Description: Compounds of the invention have also been evaluated in the mouse hotplate model of acute analgesia. Mice placed on a metallic hot plate will respond by paw licking or by jumping up from the plate (Eddy et al., 1950—J. Pharmacol. Exp. Ther.; 98:121-137). Analgesics increase nociceptive reaction latency.
Mice (17-23 g male Swiss mice ICO: OF1) were placed on a metallic hot plate maintained at 56±0.2° C. The nociceptive reaction latency, characterized by a licking reflex of the forepaws or by a jumping off the hot plate, was recorded. Plate heat cut-off time was 30 seconds. The test substances and vehicle were orally administered 60 min before testing. Results are given in Table 2 (nt=not tested; *denotes statistical significance achieved).

cytochrome P450 enzymes = assay: Metabolism by cytochrome P450 enzymes; type: in vitro ADME
[3] = Formalin-induced paw licking in mouse; type: in vivo; details: * = statistical significance; for Nociception, Early Phase: licking time 0 to 5 minutes after formalin; for Nociception, Late Phase: licking time 20 to 30 minutes after formalin
Description: Compounds of the invention have also been evaluated in the formalin-induced paw licking model in mice. Compounds were evaluated for both an early stage response and a late stage response against duloxetine and nefopam as controls.
Inflammation was induced by subplantar injection of a 5% formalin solution (0.02 ml) into the mouse right hindpaw (20-25 g male Rj: NMRI). Hindpaw licking time was continuously recorded in a blinded fashion between 0 to 5 minutes (early phase) and between 20 to 30 minutes (late phase) after formalin injection (Hunskaar et al., 1985—J. Neurosci. Methods; 14:69-76).
The test substances and vehicle were orally administered 60 min before formalin injection. Results are given in Table 3 (nt=not tested; *denotes statistical significance achieved).

NA Transporter = NA Transporter (Homo sapiens, UniProt P23975); assay: NA Transporter binding assay (NRI)
Description: as §1

Behavioural Despair Test = type: in vivo, mouse; details: 30 minutes before the test, * = statistical significance
Description: Compounds of the invention have been evaluated in the Behavioural Despair Test, a model which detects antidepressant activity.
The Behavioural Despair Test was conducted according to the method of Porsolt et al., (1977—Arch. Int. Pharmacodyn., 229:327-336). Mice forced to swim in a situation from which they cannot escape rapidly become immobile. Antidepressants decrease the duration of immobility.
Mice (20-27 g male Rj: NMRI) were individually placed in a cylinder (height=24 cm, diameter=13 cm) containing 10 cm water (22° C.), from which they cannot escape. The mice were placed in the water for 6 minutes and the duration of immobility during the last 4 minutes was measured. All compounds were administered i.p. 30 minutes before the test, and compared with a vehicle control group. Results are given in Table 5 (nt=not tested; *denotes statistical significance achieved).

5-HT Transporter = 5-HT Transporter (Homo sapiens, UniProt P31645); assay: 5-HT Transporter binding assay (SRI)
Description: as §1

[4] = read-out: CYP 2D6 inhibition IC50

NA Transporter, sequence (P23975 whole entry): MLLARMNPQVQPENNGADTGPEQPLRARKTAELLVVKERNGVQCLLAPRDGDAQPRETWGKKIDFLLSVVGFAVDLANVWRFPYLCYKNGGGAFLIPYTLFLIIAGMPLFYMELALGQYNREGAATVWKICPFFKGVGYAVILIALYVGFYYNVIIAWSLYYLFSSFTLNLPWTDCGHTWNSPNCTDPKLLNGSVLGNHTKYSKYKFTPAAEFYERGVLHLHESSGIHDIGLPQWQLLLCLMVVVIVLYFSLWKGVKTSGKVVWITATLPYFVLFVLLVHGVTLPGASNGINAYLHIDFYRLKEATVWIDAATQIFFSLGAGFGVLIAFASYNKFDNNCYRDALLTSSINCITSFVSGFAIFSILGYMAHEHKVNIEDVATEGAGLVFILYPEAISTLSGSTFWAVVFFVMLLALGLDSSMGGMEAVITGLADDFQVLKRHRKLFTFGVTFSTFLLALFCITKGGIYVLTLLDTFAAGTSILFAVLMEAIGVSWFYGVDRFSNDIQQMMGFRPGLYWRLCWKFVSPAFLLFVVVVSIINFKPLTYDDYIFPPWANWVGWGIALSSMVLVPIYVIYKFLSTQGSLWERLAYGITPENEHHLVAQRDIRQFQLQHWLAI
5-HT Transporter, sequence (P31645 whole entry): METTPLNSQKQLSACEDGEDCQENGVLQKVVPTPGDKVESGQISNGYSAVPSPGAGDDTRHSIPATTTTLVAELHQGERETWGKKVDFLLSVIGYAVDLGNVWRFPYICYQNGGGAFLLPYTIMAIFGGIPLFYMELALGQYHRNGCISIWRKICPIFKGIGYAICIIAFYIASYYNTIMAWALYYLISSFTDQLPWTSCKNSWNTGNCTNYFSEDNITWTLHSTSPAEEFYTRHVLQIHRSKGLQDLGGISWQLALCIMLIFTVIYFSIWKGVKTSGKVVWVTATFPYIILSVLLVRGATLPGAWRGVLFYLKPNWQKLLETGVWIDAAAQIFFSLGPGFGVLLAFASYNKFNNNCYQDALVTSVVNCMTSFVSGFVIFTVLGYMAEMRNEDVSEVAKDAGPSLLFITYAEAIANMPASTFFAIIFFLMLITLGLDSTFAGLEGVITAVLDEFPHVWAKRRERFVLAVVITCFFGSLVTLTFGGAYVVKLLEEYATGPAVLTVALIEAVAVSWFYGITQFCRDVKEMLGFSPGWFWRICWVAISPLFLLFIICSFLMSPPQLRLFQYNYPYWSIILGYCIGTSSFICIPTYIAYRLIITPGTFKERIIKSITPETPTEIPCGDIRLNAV
CYP 2D6, sequence (P10635 whole entry): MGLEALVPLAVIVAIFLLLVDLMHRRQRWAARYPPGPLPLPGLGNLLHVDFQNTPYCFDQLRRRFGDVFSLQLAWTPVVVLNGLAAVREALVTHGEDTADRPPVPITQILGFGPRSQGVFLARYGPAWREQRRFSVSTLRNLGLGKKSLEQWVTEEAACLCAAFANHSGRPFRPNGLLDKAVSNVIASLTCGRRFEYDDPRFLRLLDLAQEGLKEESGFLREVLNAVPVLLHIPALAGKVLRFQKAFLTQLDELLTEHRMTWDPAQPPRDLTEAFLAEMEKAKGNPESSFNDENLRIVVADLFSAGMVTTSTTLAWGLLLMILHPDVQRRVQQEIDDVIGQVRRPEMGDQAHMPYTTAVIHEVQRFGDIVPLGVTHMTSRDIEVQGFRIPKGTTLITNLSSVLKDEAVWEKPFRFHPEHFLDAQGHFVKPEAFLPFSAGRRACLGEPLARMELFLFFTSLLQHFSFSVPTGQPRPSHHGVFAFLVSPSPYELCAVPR

Structure (SMILES) | % Reduction in no of retches/vomits [1] [%*] | pIC50 (CYP 2D6) | Paw Latency (Sec) above control ([2]; 30 mg/kg po) | Paw Latency (Sec) above control ([2]; 60 mg/kg po) | Nociception, Early Phase ([3]; 30 mg/kg po) [%] | Nociception, Late Phase ([3]; 30 mg/kg po) | Nociception, Early Phase ([3]; 60 mg/kg po) | Nociception, Late Phase ([3]; 60 mg/kg po) | pIC50 (NA Transporter; read-out: IC50 vs NRI) | also measured
COc1cccc(C2OCCN(C)Cc3cc(C#N)ccc32)c1 (single isomer, unassigned) [Example 1] | 91 | 5.24 | 5 s | 7* Sec | −49 | −46% | −75%* | −88%* | 6.40 | pharmacokinetic profile (in words) (Pharmacokinetic profile): greatly improved pharmacokinetic profile over the parent compound nefopam; anti-emetic activity in the morphine-induced emesis model (in words) [1]: anti-emetic; efficacy in the mouse hot-plate model (in words) [2]: greater efficacy than the racemate; Paw Latency (Sec) above control ([2]; 10 mg/kg po): 9* Sec; metabolism by cytochrome P450 enzymes (in words) (cytochrome P450 enzymes): metabolised by a range of cytochrome P450 enzymes; Duration of Immobility (% change from ctrl) (Behavioural Despair Test; 10 mg/kg ip): −24* %; Duration of Immobility (% change from ctrl) (Behavioural Despair Test; 20 mg/kg ip): −8%; Duration of Immobility (% change from ctrl) (Behavioural Despair Test; 40 mg/kg ip): −61* %; Duration of Immobility (% change from ctrl) (Behavioural Despair Test; 80 mg/kg ip): −85* %; pIC50 (5-HT Transporter): 8.05
COc1cccc(C2OCCN(C)Cc3cc(C4CC4)ccc32)c1 (single isomer, unassigned) [Example 3, 8-cyclopropyl-5-methyl-1-(3-methoxy)phenyl-1,3,4,6-tetrahydro-5H-benz[f]-2,5-oxazocine] | 89 | – | 6* Sec | 9* Sec | −45 | −51% | −56%* | −73%* | – | anti-emetic activity in the morphine-induced emesis model (in words) [1]: anti-emetic; pIC50 (CYP 2D6; [4]): 5.96; Paw Latency (Sec) above control ([2]; 10 mg/kg po): 3 s; pIC50 (NA Transporter): 7.34; pIC50 (5-HT Transporter): 8.28
CNCC[C@H](Oc1cccc2ccccc12)c1cccs1 [Duloxetine] | – | – | – | – | −49 | −85%* | – | – | – | Duration of Immobility (% change from ctrl) (Behavioural Despair Test; 10 mg/kg ip): −6%; Duration of Immobility (% change from ctrl) (Behavioural Despair Test; 20 mg/kg ip): −9%; Duration of Immobility (% change from ctrl) (Behavioural Despair Test; 40 mg/kg ip): −65* %; Duration of Immobility (% change from ctrl) (Behavioural Despair Test; 80 mg/kg ip): −100* %
COc1cccc([C@H]2OCCN(C)Cc3cc(C#N)ccc32)c1 [Example 2, (1R)-8-cyano-5-methyl-1-(3-methoxy)phenyl-1,3,4,6-tetrahydro-5H-benz[f]-2,5-oxazocine] | – | 5.02 | 6 s | 1 s | – | – | – | – | 5.42 | pIC50 (5-HT Transporter; read-out: IC50 vs SRI): 6.92
COc1cccc(C2OCCN(C)Cc3cc(C4CC4)ccc32)c1 (stereo not shown) [Example 4, 8-cyclopropyl-5-methyl-1-(3-methoxy)phenyl-1,3,4,6-tetrahydro-5H-benz[f]-2,5-oxazocine] | – | < 5.00 | 5 s | 5 s | – | – | – | – | < 6.00 | pIC50 (CYP 2D6; [4]): 5.00; pIC50 (NA Transporter; read-out: IC50 as NRI): < 6.00; pIC50 (5-HT Transporter; read-out: IC50 vs SRI): 7.68
CN(C)CCCN1c2ccccc2CCc2ccccc21 [Imipramine] | – | – | – | – | – | – | – | – | – | Duration of Immobility (% change from ctrl) (Behavioural Despair Test; 32 mg/kg ip): −62* %
CN1CCOC(c2ccccc2)c2ccccc2C1 (stereo not shown) [Nefopam, reference compound] | 96 | – | – | – | – | – | −46% | −26% | – | Nociception, Early Phase ([3]; 100 mg/kg po): −76%*; Nociception, Late Phase ([3]; 100 mg/kg po): −68%*
